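Method: 48-hour compound exposure of cells in 96-well plates, five concentrations, linear interpolation of endpoints. At the GI50, growth is halved. TGI: concentration producing complete growth inhibition.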
Columns and labels:
Assay in all cases: growth of human tumour cells (NCI), 48 h
[1] = test system: SF-268 CNS
[2] = test system: BT-549 breast
[3] = test system: SNB-19 CNS
[4] = test system: A549 NSCLC
[5] = test system: OVCAR-8 ovarian
[6] = test system: 786-0 renal
[7] = test system: MDA-MB-231 breast
[8] = test system: SW-620 colon
[9] = test system: EKVX NSCLC
[10] = test system: SF-539 CNS
[11] = test system: HCT-15 colon
[12] = test system: PC-3 prostate
[13] = test system: UACC-62 melanoma
[14] = test system: HCC-2998 colon
[15] = test system: SK-MEL-28 melanoma
[16] = test system: MOLT-4 leukemia
[17] = test system: A498 renal
[18] = test system: LOX IMVI melanoma
[19] = test system: RXF 393 renal
[20] = test system: MALME-3M melanoma
[21] = test system: HT29 colon
[22] = test system: NCI-H23 lung
[23] = test system: SNB-75 CNS
[24] = test system: HOP-62 NSCLC
[25] = test system: IGROV1 ovarian
[26] = test system: CCRF-CEM leukemia
[27] = test system: MCF7 breast
[28] = test system: HL-60(TB) leukemia
[29] = test system: T-47D breast
[30] = test system: M14 melanoma
[31] = test system: K-562 leukemia
[32] = test system: U251 CNS
[33] = test system: HCT-116 colon
[34] = test system: TK-10 renal
[35] = test system: ACHN renal
[36] = test system: CAKI-1 renal
[37] = test system: OVCAR-4 ovarian
[38] = test system: UACC-257 melanoma
[39] = test system: MDA-MB-435
[40] = test system: RPMI-8226 leukemia
[41] = test system: COLO 205 colon
[42] = test system: UO-31 renal
[43] = test system: SF-295 CNS
[44] = test system: OVCAR-5 ovarian
[45] = test system: OVCAR-3 ovarian
[46] = test system: SR leukemia
[47] = test system: DU-145 prostate
[48] = test system: NCI-H226 lung
[49] = test system: NCI-H522 lung
[50] = test system: KM12 colon
[51] = test system: SK-MEL-2 melanoma
[52] = test system: SN12C renal
[53] = test system: NCI/ADR-RES ovarian
[54] = test system: HS 578T breast
[55] = test system: SK-OV-3 ovarian
[56] = test system: SK-MEL-5 melanoma
[57] = test system: HOP-92 NSCLC
[58] = test system: NCI-H460 lung

## CN(c1ccc(Br)cc1)S(=O)(=O)c1ccc(-c2cnc(C3CC3)o2)cc1
[1]
  GI50: 1.16 µM
  TGI: > 100 µM
[2]
  GI50: 2.96 µM
  TGI: > 100 µM
[3]
  GI50: 0.271 µM
  TGI: > 100 µM
[4]
  GI50: 0.321 µM
  TGI: > 100 µM
[5]
  GI50: 0.597 µM
  TGI: > 100 µM
[6]
  GI50: 0.397 µM
  TGI: > 100 µM
[7]
  GI50: 0.48 µM
  TGI: > 27.4 µM
[8]
  GI50: 0.0827 µM
  TGI: > 100 µM
[9]
  GI50: 0.454 µM
  TGI: > 100 µM
[10]
  GI50: 0.142 µM
  TGI: 2.7 µM
[11]
  GI50: 0.0603 µM
  TGI: > 100 µM
[12]
  GI50: 0.121 µM
  TGI: > 100 µM
[13]
  GI50: 0.0658 µM
  TGI: > 100 µM
[14]
  GI50: 0.299 µM
  TGI: > 100 µM
[15]
  GI50: 9.45 µM
  TGI: > 100 µM
[16]
  GI50: 0.286 µM
  TGI: > 100 µM
[17]
  GI50: 0.05 µM
  TGI: 0.7 µM
[18]
  GI50: 0.0939 µM
  TGI: > 100 µM
[19]
  GI50: 0.0859 µM
  TGI: 0.403 µM
[20]
  GI50: 3.84 µM
  TGI: > 100 µM
[21]
  GI50: 0.21 µM
  TGI: > 100 µM
[22]
  GI50: 0.393 µM
  TGI: > 100 µM
[23]
  GI50: 0.114 µM
  TGI: > 52.1 µM
[24]
  GI50: 0.412 µM
  TGI: > 100 µM
[25]
  GI50: 0.253 µM
  TGI: > 100 µM
[26]
  GI50: 0.0862 µM
  TGI: > 100 µM
[27]
  GI50: 0.0451 µM
  TGI: > 100 µM
[28]
  GI50: 0.0326 µM
  TGI: 0.142 µM
[29]
  GI50: 0.839 µM
  TGI: > 100 µM
[30]
  GI50: 0.156 µM
  TGI: > 100 µM
[31]
  GI50: 0.0419 µM
  TGI: > 100 µM
[32]
  GI50: 0.324 µM
  TGI: > 100 µM
[33]
  GI50: 0.129 µM
  TGI: > 100 µM
[34]
  GI50: > 64.4 µM
  TGI: > 100 µM
[35]
  GI50: 0.677 µM
  TGI: > 100 µM
[36]
  GI50: 0.0846 µM
  TGI: > 100 µM
[37]
  GI50: 0.774 µM
  TGI: > 100 µM
[38]
  GI50: > 53.3 µM
  TGI: > 100 µM
[39]
  GI50: 0.0309 µM
  TGI: 0.111 µM
[40]
  GI50: 0.209 µM
  TGI: 2.47 µM
[41]
  GI50: 0.37 µM
  TGI: > 100 µM
[42]
  GI50: 0.88 µM
  TGI: > 100 µM
[43]
  GI50: 0.0712 µM
  TGI: > 100 µM
[44]
  GI50: 0.524 µM
  TGI: > 100 µM
[45]
  GI50: 0.109 µM
  TGI: 5.27 µM
[46]
  GI50: 0.0485 µM
  TGI: > 100 µM
[47]
  GI50: 0.375 µM
  TGI: > 100 µM
[48]
  GI50: 0.284 µM
  TGI: 7.52 µM
[49]
  GI50: 0.374 µM
  TGI: > 100 µM
[50]
  GI50: 0.225 µM
  TGI: > 100 µM
[51]
  GI50: 1.34 µM
  TGI: > 100 µM
[52]
  GI50: 1.03 µM
  TGI: > 100 µM
[53]
  GI50: 0.0732 µM
  TGI: > 40.7 µM
[54]
  GI50: 0.279 µM
  TGI: > 100 µM
[55]
  GI50: 5.33 µM
  TGI: > 100 µM

## COc1ccc(Cn2cc3c(c2-c2cc(OC)c(OC)c(OC)c2)CCc2c(CN4CCOCC4)noc2-3)cc1
[1]
  GI50: 0.87 µM
  TGI: > 100 µM
[2]
  GI50: 1.14 µM
  TGI: 4.97 µM
[3]
  GI50: 1.15 µM
  TGI: > 100 µM
[4]
  GI50: 1.13 µM
  TGI: > 100 µM
[5]
  GI50: 1.8 µM
  TGI: > 100 µM
[6]
  GI50: 0.668 µM
  TGI: > 100 µM
[7]
  GI50: 2.81 µM
  TGI: > 100 µM
[8]
  GI50: 0.458 µM
  TGI: > 100 µM
[9]
  GI50: 1.35 µM
  TGI: > 100 µM
[10]
  GI50: 0.448 µM
  TGI: > 100 µM
[11]
  GI50: 0.457 µM
  TGI: > 100 µM
[12]
  GI50: 0.55 µM
  TGI: > 100 µM
[13]
  GI50: 0.488 µM
  TGI: > 100 µM
[14]
  GI50: 1.74 µM
  TGI: > 100 µM
[15]
  GI50: > 47.7 µM
  TGI: > 100 µM
[16]
  GI50: 2.59 µM
  TGI: > 100 µM
[17]
  GI50: 0.305 µM
  TGI: 1.03 µM
[18]
  GI50: 0.446 µM
  TGI: > 100 µM
[19]
  GI50: 0.382 µM
  TGI: > 100 µM
[20]
  GI50: 0.495 µM
  TGI: > 100 µM
[21]
  GI50: 0.637 µM
  TGI: > 100 µM
[56]
  GI50: 1.15 µM
  TGI: 14.3 µM
[22]
  GI50: 1.85 µM
  TGI: > 100 µM
[23]
  GI50: 0.308 µM
  TGI: > 100 µM
[24]
  GI50: 1.03 µM
  TGI: > 100 µM
[25]
  GI50: 0.871 µM
  TGI: > 100 µM
[26]
  GI50: 1.07 µM
  TGI: > 100 µM
[27]
  GI50: 0.362 µM
  TGI: > 100 µM
[57]
  GI50: 0.667 µM
  TGI: > 100 µM
[28]
  GI50: 0.387 µM
  TGI: 13.1 µM
[29]
  TGI: > 100 µM
[30]
  GI50: 0.555 µM
  TGI: > 100 µM
[31]
  GI50: 0.399 µM
  TGI: > 100 µM
[58]
  GI50: 0.506 µM
  TGI: > 100 µM
[32]
  GI50: 0.779 µM
  TGI: > 100 µM
[33]
  GI50: 0.443 µM
  TGI: > 100 µM
[34]
  GI50: > 100 µM
  TGI: > 100 µM
[35]
  GI50: 0.718 µM
  TGI: > 100 µM
[36]
  GI50: 0.565 µM
  TGI: > 100 µM
[37]
  GI50: 18.6 µM
  TGI: > 100 µM
[38]
  GI50: 0.963 µM
  TGI: > 100 µM
[40]
  GI50: 1.16 µM
  TGI: > 100 µM
[41]
  GI50: 1.23 µM
  TGI: 6.08 µM
[42]
  GI50: 0.674 µM
  TGI: > 100 µM
[43]
  GI50: 0.426 µM
  TGI: > 100 µM
[44]
  GI50: 3.22 µM
  TGI: > 100 µM
[46]
  GI50: 0.35 µM
  TGI: > 100 µM
[47]
  GI50: 2.19 µM
  TGI: > 100 µM
[48]
  GI50: 0.821 µM
  TGI: > 100 µM
[49]
  GI50: 0.269 µM
  TGI: 0.816 µM
[50]
  GI50: 0.435 µM
  TGI: > 100 µM
[51]
  GI50: 0.549 µM
  TGI: > 100 µM
[52]
  GI50: 3.67 µM
  TGI: > 100 µM
[53]
  GI50: 0.45 µM
  TGI: > 100 µM
[54]
  GI50: 0.432 µM
  TGI: > 100 µM
[55]
  GI50: 1.47 µM
  TGI: > 100 µM

From PubChem BioAssay (NCI)
